The values that follow come from patent publication US20240132475A1, “SUBSTITUTED PYRAZOLYL COMPOUNDS AS MALT-1 INHIBITORS” (AURIGENE ONCOLOGY LIMITED, priority 2021, published 2024).

SMILES strings stand for the structures.

One may read the IC50 as the concentration that inhibits the measured activity by half. A higher IC50 goes with weaker potency. In general, inhibition refers to how much of the control response was suppressed.

In the assay the target is T1, MALT-1 (Isoform 1) (Homo sapiens, UniProt Q9UDY8).
T1 construct: using recombinant MALT-1 (Isoform 1, aa-840) generated in house; made in house
T1 sequence (Q9UDY8 1-824): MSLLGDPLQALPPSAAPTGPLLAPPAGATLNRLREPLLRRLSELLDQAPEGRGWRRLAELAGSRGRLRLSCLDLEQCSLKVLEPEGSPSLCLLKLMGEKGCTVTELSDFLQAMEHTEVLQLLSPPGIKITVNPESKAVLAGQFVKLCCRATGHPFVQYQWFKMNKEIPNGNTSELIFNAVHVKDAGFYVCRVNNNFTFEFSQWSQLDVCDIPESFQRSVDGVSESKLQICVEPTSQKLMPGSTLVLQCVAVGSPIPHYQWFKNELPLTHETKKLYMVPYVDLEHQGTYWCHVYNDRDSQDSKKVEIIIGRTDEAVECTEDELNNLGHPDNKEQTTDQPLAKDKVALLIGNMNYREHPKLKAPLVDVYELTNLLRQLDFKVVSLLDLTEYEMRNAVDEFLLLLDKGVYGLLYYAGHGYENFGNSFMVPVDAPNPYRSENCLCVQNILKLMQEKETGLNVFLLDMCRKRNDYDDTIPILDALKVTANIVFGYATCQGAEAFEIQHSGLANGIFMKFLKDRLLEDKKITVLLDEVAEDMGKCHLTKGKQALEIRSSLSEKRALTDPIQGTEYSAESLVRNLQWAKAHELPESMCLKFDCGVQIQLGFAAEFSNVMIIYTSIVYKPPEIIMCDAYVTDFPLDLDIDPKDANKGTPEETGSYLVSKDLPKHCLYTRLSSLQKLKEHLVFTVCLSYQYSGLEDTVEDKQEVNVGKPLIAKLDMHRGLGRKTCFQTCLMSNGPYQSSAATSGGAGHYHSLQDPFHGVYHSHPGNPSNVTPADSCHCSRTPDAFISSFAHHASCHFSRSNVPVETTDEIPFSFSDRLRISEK
Kind of assay: MALT-1 (Isoform 1) enzyme fluorescent biochemical assay. Conditions: for IC50: dose-response, sigmoidal curve fit, reported as groups A, B, C; for inhibition at 1 µM / Percent Inhibition (1 μM): test compound 1 μM, recombinant MALT-1 1.5 nM; for inhibition at 1 µM: read-out: Percent Inhibition (1 μM). The protocol:
The potency of compounds to inhibit MALT-1 (Isoform 1) enzyme was tested in a Fluorescent assay using recombinant MALT-1 (Isoform 1, aa-840) generated in house. The assay buffer was 50 mM HEPES (pH 7.5), 100 mM NaCl, 10 mM DTT, 1 mM EDTA, 0.9 M sodium citrate, 0.01% CHAPS. 1.5 nM of MALT-1 enzyme was incubated with test compounds ([…]) (1% DMSO) in the presence of buffer for 30 minutes at 30° C. The protease reaction was initiated by adding […] of AC-LRSR-MAC (Peptide International, USA) substrate and incubated for 240 min. After 240 min incubation, fluorescence emission of the samples at 460 nm was measured at an excitation of 355 nm. The percent inhibition was calculated using the following formula: […]. IC50 values were determined by fitting the dose-response data to sigmoidal curve fitting equation using Graph pad prism software V8.
ND represents Not Determined.

In the case of `CC(c1cccc(Cl)c1)n1ncc(C(=O)Nc2cnc(-n3nccn3)c(Cl)c2)c1C(F)(F)F` (stereo not drawn) [Compound 49, N-(5-chloro-6-(2H-1,2,3-triazol-2-yl)pyridin-3-yl)-1-(1-(3-chlorophenyl)ethyl)-5-(trifluoromethyl)-1H-pyrazole-4-carboxamide], the half-inhibitory concentration (IC50) is 251 to 1000 nM and the inhibition at 1 µM was 88%.
As to `O=C(Nc1cncc(C(F)(F)F)c1)c1cnn(Cc2cccc(F)c2Cl)c1C(F)(F)F` [Compound 42, 1-(2-chloro-3-fluorobenzyl)-5-(trifluoromethyl)-N-(5-(trifluoromethyl)pyridin-3-yl)-1H-pyrazole-4-carboxamide], the IC50 fell in the range of 251 to 1000 nM and the inhibition at 1 µM was 71%.
For `CC(c1cccc(Cl)c1)n1ncc(C(=O)Nc2cnc(-n3nccn3)c(C#N)c2)c1C(F)(F)F` (stereo not drawn) [Compound 51, 1-(1-(3-chlorophenyl)ethyl)-N-(5-cyano-6-(2H-1,2,3-triazol-2-y1)pyridin-3-y1)-5-(trifluoromethyl)-1H-pyrazole-4-carboxamide] the same measures were less than 250 nM and 100%.
For `N#Cc1cc(NC(=O)c2cnn(Cc3cccc(F)c3C(F)F)c2C(F)(F)F)cnc1-n1nccn1` [Compound 56, N-(5-cyano-6-(2H-1,2,3-triazol-2-yl)pyridin-3-y1)-1-(2-(difluoromethyl)-3-fluorobenzyl)-5-(trifluoromethyl)-1H-pyrazole-4-carboxamide] the same measures were 251 to 1000 nM and 77%.
For `N#Cc1cc(NC(=O)c2cnn(Cc3ccc(F)cc3)c2C(F)(F)F)cnc1-n1nccn1` [Compound 10, N-(5-cyano-6-(2H-1,2,3-triazol-2-yl)pyridin-3-yl)-1-(4-fluorobenzyl)-5-(trifluoromethyl)-1H-pyrazole-4-carboxamide], in that order: more than 1000 nM and 44%.
For the compound `O=C(Nc1cnc(-n2nccn2)c(Cl)c1)c1cnn(Cc2cccc(F)c2Cl)c1C(F)(F)F` [Compound 34, 1-(2-chloro-3-fluorobenzy1)-N-(5-chloro-6-(2H-1,2,3-triazol-2-yl)pyridin-3-yl)-5-(trifluoromethyl)-1H-pyrazole-4-carboxamide], the IC50 is less than 250 nM and the inhibition at 1 µM was determined as 99%.
For `N#Cc1cc(NC(=O)c2cnn(Cc3cccc(Cl)c3)c2C(F)(F)F)cnc1-n1nccn1` [Compound 8, 1-(3-chlorobenzyl)-N-(5-cyano-6-(2H-1,2,3-triazol-2-y1)pyridin-3-yl)-5-(trifluoromethyl)-1H-pyrazole-4-carboxamide] the same measures were less than 250 nM and 87%.
For `CC(c1cccc(C#N)c1)n1ncc(C(=O)Nc2cnc(-n3nccn3)c(C#N)c2)c1C(F)(F)F` (stereo not drawn) [Compound 50, N-(5-cyano-6-(2H-1,2,3-triazol-2-yl)pyridin-3-yl)-1-(1-(3-cyanophenyl)ethyl)-5-(trifluoromethyl)-1H-pyrazole-4-carboxamide] the same measures were less than 250 nM and 65%.
For `CC(c1cccc(F)c1)n1ncc(C(=O)Nc2cnc(-n3nccn3)c(Cl)c2)c1C(F)(F)F` (single isomer, unassigned) [Compound 4b], in that order: less than 250 nM and 94%.
For `N#Cc1cc(NC(=O)c2cnn(Cc3cccc(F)c3F)c2C(F)(F)F)cnc1-n1nccn1` [Compound 27, N-(5-cyano-6-(2H-1,2,3-triazol-2-yl)pyridin-3-y1)-1-(2,3-difluorobenzyl)-5-(trifluoromethyl)-1H-pyrazole-4-carboxamide], the IC50 is less than 250 nM and the inhibition at 1 µM turned out to be 100%.
For `O=C(Nc1ccnc(C(F)(F)F)c1)c1cnn(Cc2cccc(F)c2)c1C(F)(F)F` [Compound 19, 1-(3-fluorobenzyl)-5-(trifluoromethyl)-N-(2-(trifluoromethyl)pyridin-4-yl)-1H-pyrazole-4-carboxamide], in that order: more than 1000 nM and 22%.
Take `COc1ncc(NC(=O)c2cnn(Cc3cccc(F)c3Cl)c2C(F)(F)F)cc1Cl` [Compound 37, 1-(2-chloro-3-fluorobenzyl)-N-(5-chloro-6-methoxypyridin-3-y1)-5-(trifluoromethyl)-1H-pyrazole-4-carboxamide]: the IC50 was in the range of 251 to 1000 nM and the inhibition at 1 µM amounted to 81%.
For `O=C(Nc1cnnc(C(F)(F)F)c1)c1cnn(Cc2cccc(F)c2Cl)c1C(F)(F)F` [Compound 53, 1-(2-chloro-3-fluorobenzyl)-5-(trifluoromethyl)-N-(6-(trifluoromethyl)pyridazin-4-yl)-1H-pyrazole-4-carboxamide] the same measures were 251 to 1000 nM and 60%.
For `O=C(Nc1cc(C(F)(F)F)cnn1)c1cnn(Cc2cccc(F)c2Cl)c1C(F)(F)F` [Compound 43, 1-(2-chloro-3-fluorobenzyl)-5-(trifluoromethyl)-N-(5-(trifluoromethyl)pyridazin-3-y1)-1H-pyrazole-4-carboxamide], in that order: more than 1000 nM and 13%.
For `COc1cc(F)cc(Cn2ncc(C(=O)Nc3cnc(-n4nccn4)c(C#N)c3)c2C(F)(F)F)c1` [Compound 35, N-(5-cyano-6-(2H-1,2,3-triazol-2-yl)pyridin-3-yl)-1-(3-fluoro-5-methoxybenzyl)-5-(trifluoromethyl)-1H-pyrazole-4-carboxamide], in that order: more than 1000 nM and 42%.
`CC(c1ccccc1)n1ncc(C(=O)Nc2cnc(-n3nccn3)c(C#N)c2)c1C(F)(F)F` (single isomer, unassigned) [Compound 2b]: the IC50 lay within 251 to 1000 nM and the “Percent Inhibition (1 μM)” value came to 57%.
Turning to `N#Cc1cccc(Cn2ncc(C(=O)Nc3cnc(-n4nccn4)c(C#N)c3)c2C(F)(F)F)c1` [Compound 12, N-(5-cyano-6-(2H-1,2,3-triazol-2-yl)pyridin-3-y1)-1-(3-cyanobenzyl)-5-(trifluoromethyl)-1H-pyrazole-4-carboxamide], the IC50 was less than 250 nM and the inhibition at 1 µM was 98%.
For `N#Cc1cc(NC(=O)c2cnn(Cc3ccncc3)c2C(F)(F)F)cnc1-n1nccn1` [Compound 13, N-(5-cyano-6-(2H-1,2,3-triazol-2-yl)pyridin-3-yl)-1-(pyridin-4-ylmethyl)-5-(trifluoromethyl)-1H-pyrazole-4-carboxamide], in that order: more than 1000 nM and 40%.
For `CC(c1ccccc1)n1ncc(C(=O)Nc2cnc(-n3nccn3)c(Cl)c2)c1C(F)(F)F` (racemic) [Compound 5, N-(5-chloro-6-(2H-1,2,3-triazol-2-yl)pyridin-3-yl)-1-(1-phenylethyl)-5-(trifluoromethyl)-1H-pyrazole-4-carboxamide] the same measures were 251 to 1000 nM and 89%.
On to `CC(c1cccc(F)c1)n1ncc(C(=O)Nc2cnc(-n3nccn3)c(C#N)c2)c1C(F)(F)F` (single isomer, unassigned) [Compound 3a], for which the IC50 was 251 to 1000 nM and the “Percent Inhibition (1 μM)” value came to 76%.
With `CC(C)C(c1cccc(F)c1)n1ncc(C(=O)Nc2cnc(-n3nccn3)c(C#N)c2)c1C(F)(F)F` (stereo not drawn) [Compound 48, N-(5-cyano-6-(2H-1,2,3-triazol-2-yl)pyridin-3-yl)-1-(1-(3-fluorophenyl)-2-methylpropyl)-5-(trifluoromethyl)-1H-pyrazole-4-carboxamide], the concentration for half-maximal inhibition (IC50) was more than 1000 nM and the inhibition at 1 µM came to 23%.
